Data taken from patent US20240301319A1, “PERFUMING COMPOSITIONS” (FIRMNICH SA, priority 2017, published 2024).
Where a name gives a salt, the structure may show the parent alone. Read-outs that look alike come from different tables or passages of the source.

Experiments:
[1] = Volatility of perfuming compounds (Tables 4 to 10), with top/middle/bottom note type; format: physicochemical
Experimental: In some aspects, the first perfume accord comprises perfuming compounds having a volatility ranging from 70,000 to 100 μg/l in air. In some aspects, perfuming compounds having a volatility ranging from 70,000 to 100 μg/l in air are referred to as “top notes”.
In some aspects, the second perfume accord comprises perfuming compounds having a volatility ranging from 99 to 50 μg/l in air. In some aspects, perfuming compounds having a volatility ranging from 99 to 50 μg/l in air are referred to as “middle notes”.
In some aspects, the third perfume accord comprises perfuming compounds having a volatility ranging from 49 to 0.1 μg/l in air. In some aspects, perfuming compounds having a volatility ranging from 49 to 0.1 μg/l in air are referred to as “bottom notes”.
Tables 4 to 10 describe top, middle and bottom note perfuming compounds for watery, green, fruity, citrus, sweet, gourmand and woody notes respectively.

[2] = Odor threshold and odor value of perfuming compounds (Tables 4 to 10)
[3] = Table 6, perfuming compounds having a fruity note
[4] = Table 6, perfuming compounds having a fruity note, note type by volatility
[5] = note type (Top/Middle/Bottom) by volatility, perfuming compounds having a green note
[6] = perfuming compounds having a green note
[7] = Table 7, citrus note, top, middle or bottom note
[8] = Table 7, citrus note, equals volatility divided by odor threshold
[9] = Table 8, perfuming compounds having a sweet note
[10] = Table 8, perfuming compounds having a sweet note, note type by volatility
[11] = Table 10, perfuming compounds having a woody note, note type by volatility
[12] = Table 4, watery note, top, middle or bottom note
[13] = Table 4, watery note, equals volatility divided by odor threshold
[14] = Table 9, perfuming compounds having a gourmand note, note type by volatility

## CCC/C=C/COC(C)=O [(E)-2-HEXENYL ACETATE]
[1]; [3]
  Volatility: 6062.68 μg/l air
[1]; [4]
  Type: TOP (perfuming compounds having a volatility ranging from 70,000 to 100 μg/l in air are referred to as “top notes”)
[1]; [5]
  Type: Top
[1]; [6]
  Volatility (μg/l air): 6062.68 μg/l air
[2]; [6]
  Odor Threshold (μg/l air): 2.08E−01 μg/l air

## tricyclo[5.2.1.0~2,6~]dec-3-en-8-yl acetate (A) + tricyclo[5.2.1.0~2,6~]dec-4-en-8-yl acetate (B)
[1]; Table 7, citrus note
  Volatility (μg/l air): 96.53 μg/l air
[1]; [7]
  Type: Middle
[2]; Table 7, citrus note
  Odor Threshold (μg/l air): 7.19E−04 μg/l air
[2]; [8]
  Odor Value: 1.34E+05

## CC(=O)CCC1=C(C)CCCC1(C)C
[1]; [9]
  Volatility: 63.61 μg/l air
[1]; [10]
  Type: Middle
[1]; [11]
  Type: Middle
[1]; Table 10, woody note
  Volatility: 63.61 μg/l air
[2]; [9]
  Odor Threshold: 8.51E−03 μg/l air
  Odor Value: 7.48E+03
[2]; Table 10, woody note
  Odor Threshold: 8.51E−03 μg/l air

## CC(C)=CC1CC(C)CCO1 (stereo not shown)
[1]; [5]
  Type: Top
[1]; [6]
  Volatility (μg/l air): 2483.93 μg/l air
[2]; [6]
  Odor Threshold (μg/l air): 8.77E−04 μg/l air

## CC(CC=O)CC(C)(C)C (racemic) [(+−)-3,5,5-TRIMETHYLHEXANAL]
[1]; [5]
  Type: Top
[1]; [6]
  Volatility (μg/l air): 12045.92 μg/l air
[2]; [6]
  Odor Threshold (μg/l air): 9.37E−03 μg/l air

## CC(C)=CCCC(C)CCOC=O (racemic) [(+−)-3,7-DIMETHYL-6-OCTENYL FORMATE]
[1]; [3]
  Volatility: 262.84 μg/l air
[1]; [4]
  Type: TOP (perfuming compounds having a volatility ranging from 70,000 to 100 μg/l in air are referred to as “top notes”)
[1]; [5]
  Type: Top
[1]; [6]
  Volatility (μg/l air): 262.84 μg/l air
[2]; [6]
  Odor Threshold (μg/l air): 1.72E−03 μg/l air

## CCCCCCCCCCC=O [undecanal]
[1]; Table 4, watery note
  Volatility (μg/l air): 178.29 μg/l air
[1]; [12]
  Type: TOP (perfuming compounds having a volatility ranging from 70,000 to 100 μg/l in air are referred to as “top notes”)
[2]; Table 4, watery note
  Odor Threshold (μg/l air): 1.65E−03 μg/l air
[2]; [13]
  Odor Value: 1.08E+05

## CCCCC[C@@H]1C(=O)CC[C@@H]1CC(=O)OC
[1]; [11]
  Type: Bottom
[1]; Table 10, woody note
  Volatility: 1.71 μg/l air
[2]; Table 10, woody note
  Odor Threshold: 2.82E−04 μg/l air

## CC(=O)OCCC(C)CCC=C(C)C (stereo not shown) [3,7-DIMETHYL-6-OCTENYL ACETATE]
[1]; [3]
  Volatility: 128.72 μg/l air
[1]; [4]
  Type: TOP (perfuming compounds having a volatility ranging from 70,000 to 100 μg/l in air are referred to as “top notes”)
[2]; [3]
  Odor Threshold: 2.75E−02 μg/l air
  Odor Value: 4.68E+03

## COC(=O)Cc1ccccc1 [METHYL PHENYLACETATE]
[1]; [3]
  Volatility: 555.30 μg/l air
[1]; [4]
  Type: TOP (perfuming compounds having a volatility ranging from 70,000 to 100 μg/l in air are referred to as “top notes”)
[1]; [9]
  Volatility: 555.30 μg/l air
[1]; [10]
  Type: Top
[1]; Table 9, gourmand note
  Volatility: 555.30 μg/l air
[1]; [14]
  Type: Top
[2]; [9]
  Odor Threshold: 3.21E−04 μg/l air
  Odor Value: 1.73E+06
[2]; Table 9, gourmand note
  Odor Threshold: 3.21E−04 μg/l air

## CCCCSCCCC [DIBUTYL SULFIDE]
[1]; [5]
  Type: Top
[1]; [6]
  Volatility (μg/l air): 2766.10 μg/l air
[2]; [6]
  Odor Threshold (μg/l air): 2.34E−02 μg/l air

## (A) + (+−)-3,5,6,6-tetramethyl-4-methylidene-2-heptanone (B) + (+−)-(4E)-3,4,5,6,6-pentamethyl-4-hepten-2-one (C) + (+−)-(3Z)-3,4,5,6,6-pentamethyl-3-hepten-2-one (D) + (+−)-(3E)-3,4,5,6,6-pentamethyl-3-hepten-2-one (E)
[1]; Table 7, citrus note
  Volatility (μg/l air): 659.22 μg/l air
[1]; [7]
  Type: Top
[2]; Table 7, citrus note
  Odor Threshold (μg/l air): 7.24E−02 μg/l air
[2]; [8]
  Odor Value: 9.11E+03

## CCc1occc(=O)c1O [2-ETHYL-3-HYDROXY-4(4H)-PYRANONE]
[1]; [3]
  Volatility: 48.86 μg/l air
[1]; [4]
  Type: Bottom
[1]; [9]
  Volatility: 48.86 μg/l air
[1]; [10]
  Type: Bottom
[2]; [3]
  Odor Threshold: 6.45E−05 μg/l air
  Odor Value: 7.57E+05
[2]; [9]
  Odor Threshold: 6.45E−05 μg/l air
  Odor Value: 7.57E+05

## Cc1occc(=O)c1O [3-HYDROXY-2-METHYL-4(4H)-PYRANONE]
[1]; [3]
  Volatility: 92.42 μg/l air
[1]; [4]
  Type: Middle
[1]; [9]
  Volatility: 92.42 μg/l air
[1]; [10]
  Type: Middle
[2]; [3]
  Odor Threshold: 4.17E−04 μg/l air
  Odor Value: 2.22E+05
[2]; [9]
  Odor Threshold: 4.17E−04 μg/l air
  Odor Value: 2.22E+05

## CCCCCC#CC(=O)OC [METHYL 2-OCTYNOATE″]
[1]; Table 4, watery note
  Volatility (μg/l air): 472.01 μg/l air
[1]; [12]
  Type: TOP (perfuming compounds having a volatility ranging from 70,000 to 100 μg/l in air are referred to as “top notes”)
[2]; Table 4, watery note
  Odor Threshold (μg/l air): 8.31E−04 μg/l air
[2]; [13]
  Odor Value: 5.68E+05

## CC(OC=O)C1CCCC(C)(C)C1 (stereo not shown) [1-(3,3-DIMETHYL-1-CYCLOHEXYL)ETHYL FORMATE]
[1]; Table 7, citrus note
  Volatility (μg/l air): 1129.46 μg/l air
[1]; [7]
  Type: Top
[2]; Table 7, citrus note
  Odor Threshold (μg/l air): 2.05E−01 μg/l air
[2]; [8]
  Odor Value: 5.50E+03

## CC(C)(O)CCC1CCCCC1 [4-CYCLOHEXYL-2-METHYL-2-BUTANOL]
[1]; [3]
  Volatility: 79.34 μg/l air
[1]; [4]
  Type: Middle
[1]; Table 7, citrus note
  Volatility (μg/l air): 79.34 μg/l air
[1]; [7]
  Type: Middle
[2]; [3]
  Odor Threshold: 2.83E−02 μg/l air
  Odor Value: 2.81E+03
[2]; Table 7, citrus note
  Odor Threshold (μg/l air): 2.83E−02 μg/l air
[2]; [8]
  Odor Value: 2.81E+03

## CCCCCC/C=C/C(=O)OC [methyl (2E)-2-nonenoate]
[1]; [3]
  Volatility: 264.84 μg/l air
[1]; [4]
  Type: TOP (perfuming compounds having a volatility ranging from 70,000 to 100 μg/l in air are referred to as “top notes”)
[1]; [5]
  Type: Top
[1]; [6]
  Volatility (μg/l air): 264.84 μg/l air
[2]; [6]
  Odor Threshold (μg/l air): 5.84E−02 μg/l air

## CC/C=C\CCOC(=O)C(C)C [(Z)-3-HEXENYL ISOBUTYRATE]
[1]; [3]
  Volatility: 1073.97 μg/l air
[1]; [4]
  Type: TOP (perfuming compounds having a volatility ranging from 70,000 to 100 μg/l in air are referred to as “top notes”)
[1]; [5]
  Type: Top
[1]; [6]
  Volatility (μg/l air): 1073.97 μg/l air
[2]; [6]
  Odor Threshold (μg/l air): 4.54E−02 μg/l air

## CC(=O)OC(c1ccccc1)C(Cl)(Cl)Cl (racemic) [(+−)-2,2,2-TRICHLORO-1-PHENYLETHYL ACETATE]
[1]; [3]
  Volatility: 11.96 μg/l air
[1]; [4]
  Type: Bottom
[1]; Table 7, citrus note
  Volatility (μg/l air): 11.96 μg/l air
[1]; [7]
  Type: Bottom
[2]; [3]
  Odor Threshold: 1.15E−03 μg/l air
  Odor Value: 1.04E+04
[2]; Table 7, citrus note
  Odor Threshold (μg/l air): 1.15E−03 μg/l air
[2]; [8]
  Odor Value: 1.04E+04

## 3-(3,3-dimethyl-2,3-dihydro-1H-inden-5-yl)propanal (A) + 3-(1,1-dimethyl-2,3-dihydro-1H-inden-5-yl)propanal (B)
[1]; Table 4, watery note
  Volatility (μg/l air): 13.73 μg/l air
[1]; [12]
  Type: bottom (perfuming compounds having a volatility ranging from 49 to 0.1 μg/l in air are referred to as “bottom notes”)
[2]; Table 4, watery note
  Odor Threshold (μg/l air): 1.32E−05 μg/l air
[2]; [13]
  Odor Value: 1.04E+06

## CCCC1CCC(O)C(OC)C1 (stereo not shown) [2-METHOXY-4-PROPYL-1-CYCLOHEXANOL]
[1]
  Volatility (μg/l air): 189.74 μg/l air
[1]; [5]
  Type: Top
[2]; [6]
  Odor Threshold (μg/l air): 2.85E−02 μg/l air

## CCCCCC(=O)O [HEXANOIC ACID]
[1]; [9]
  Volatility: 197.90 μg/l air
[1]; [10]
  Type: Top
[1]; Table 9, gourmand note
  Volatility: 197.90 μg/l air
[1]; [14]
  Type: Top
[1]; [5]
  Type: Top
[1]; [6]
  Volatility (μg/l air): 197.90 μg/l air
[2]; [9]
  Odor Threshold: 1.82E−02 μg/l air
  Odor Value: 1.09E+04
[2]; Table 9, gourmand note
  Odor Threshold: 1.82E−02 μg/l air
[2]; [6]
  Odor Threshold (μg/l air): 1.82E−02 μg/l air
